The record followed here is ChEMBL document CHEMBL5634109, “Synthesis and mechanism of action of new purine derivatives against triple negative breast cancer” (Eur J Med Chem, 2023).

As usually defined, the IC50 is the concentration that inhibits the measured activity by half.

Data set [1] deals with MDA-MB-231. Kind of data set: Antitumor activity against human MDA-MB-231 cells xenografted in nude mouse assessed as inhibition of lung metastasis in tumor at 10 mg/kg, ip measured for 3 days. Type of data set: functional, organism-based. To be noted: time 3.0 day.
The next data set concerns A549. Nature of the data set: Antiproliferative activity against human A549 cells assessed as reduction in cell viability measured for 48 hrs by MTT assay. The data set is classed as functional, cell-based. Particulars: A549, 48 h. For orientation: Tetrazolium dyes change colour on reduction, which living cells bring about.
Data set [2] concerns the target Dual specificity tyrosine-phosphorylation-regulated kinase 1A (Homo sapiens, UniProt Q13627). Kind of data set: Inhibition of DYRK1A (unknown origin).
The subject of the next data set is HCT-116. Kind of data set: Antiproliferative activity against human HCT-116 cells assessed as reduction in cell viability measured for 48 hrs by MTT assay. Type of data set: functional, cell-based. Particulars: HCT-116, 48 h.
The subject of data set [3] is MDA-MB-231. Kind of data set: Antitumor activity against human MDA-MB-231 cells xenografted in nude mouse assessed as reduction in tumor growth at 10 to 20 mg/kg, ip measured for 3 days. Type of data set: functional, organism-based. Particulars: dose 10-20 mg/kg, time 3.0 day. A general note: In xenograft studies the graft and the host belong to different species.
Data set [4] concerns MDA-MB-231. Kind of data set: Induction of ROS generation in human MDA-MB-231 cells assessed as increase in intracellular ROS level at 40 uM incubated for 48 hrs by DCFH-DA staining based fluorescence microscopic analysis (Rvb=79.6%). The data set is classed as functional.
Data set [5] has as its system MDA-MB-231. Kind of data set: Antitumor activity against human MDA-MB-231 cells xenografted in nude mouse assessed as inhibition of spleen metastasis in tumor at 10 mg/kg, ip measured for 3 days. Type of data set: functional, organism-based. Particulars: time 3.0 day.
The nature of data set [6]: Hepatotoxicity in nude mouse at 10 mg/kg, ip measured for 3 days. The data set is classed as toxicity, organism-based. Particulars: in vivo, 72 h, time 3 day.
The next data set has as its system NCI-H1299. Nature of the data set: Antiproliferative activity against human NCI-H1299 cells assessed as reduction in cell viability measured for 48 hrs by MTT assay. The data set is classed as functional, cell-based. Particulars: NCI-H1299, 48 h.
In data set [7] the test system is MDA-MB-231. Nature of the data set: Induction of apoptosis in human MDA-MB-231 cells assessed as apoptotic cells at 4 uM incubated for 24 hrs by Annexin V-FITC/PI staining based analysis. Type of data set: functional.
The nature of data set [8]: Antiproliferative activity against human HUVEC cells assessed as reduction in cell viability measured for 48 hrs by MTT assay. The data set is classed as toxicity, cell-based.
Data set [9] is described as follows: Inhibition of PI3K/AKT/mTOR signaling pathway in human MDA-MB-231 cells assessed as decrease in AKT expression at 1 to 4 uM incubated for 6 hrs by Western blot analysis. The data set is classed as cell-based. Particulars: dose 1-4 µM.
Another data set concerns HT-29. Nature of the data set: Antiproliferative activity against human HT-29 cells assessed as reduction in cell viability measured for 48 hrs by MTT assay. The data set is classed as functional, cell-based. To be noted: HT-29, 48 h.

Active and inactive are the calls of the source. The rule behind the calls is not given here.

`OCCN1CCC(C2CCN(c3nc(NCc4ccc(F)c(Cl)c4)c4ncn(CC5CC5)c4n3)CC2)CC1`: the outcome in the data set on MDA-MB-231 [1], with MDA-MB-231 [3] and in the data set with MDA-MB-231 [5] was Active. For the same compound, the IC50 in the data set on A549 was determined as 2.12 µM; in [2], 3.89 µM; in the data set on HCT-116, 0.34 µM; in the data set on NCI-H1299, 4.28 µM; with HT-29, 4.16 µM. Also, the Activity in the data set on MDA-MB-231 [4] is listed as 80.7%; in data set [6], “Non-Toxic”; in the data set with MDA-MB-231 [7], 97.1%. In addition, the IC50 at 48 h in [8] is 4.26 µM. The inhibition entry in [9] is “Active”.
